Each structure is given as a SMILES string. pIC50: −log10 of the molar value. Read-outs that look alike come from different tables or passages of the source.

The test addresses T1, APOL1 G1 (Homo sapiens, UniProt O14791, I384M/S342G).
T1 sequence (O14791 28-398 S342G/I384M): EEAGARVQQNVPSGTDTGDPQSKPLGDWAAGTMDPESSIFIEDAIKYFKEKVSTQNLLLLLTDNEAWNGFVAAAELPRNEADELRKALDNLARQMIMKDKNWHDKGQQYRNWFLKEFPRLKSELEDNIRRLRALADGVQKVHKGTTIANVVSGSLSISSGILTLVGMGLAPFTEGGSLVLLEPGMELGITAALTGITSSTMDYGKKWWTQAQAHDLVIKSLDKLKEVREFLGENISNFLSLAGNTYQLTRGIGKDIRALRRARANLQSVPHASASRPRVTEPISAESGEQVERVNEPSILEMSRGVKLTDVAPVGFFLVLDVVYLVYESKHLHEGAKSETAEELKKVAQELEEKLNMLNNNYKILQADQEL
Put plainly: MultiTox-Fluor Multiplex Cytotoxicity Assay, tet-inducible APOL1 G1 T-REx-HEK293 cells. The class given is cell-based. Details: expressed in transfected cells; host or cells: T-REx HEK293, clone G1 DC3.25 (pAAVS1-Puro-APOL1 G1). Conditions: for IC90: read-out: Multi-Tox Assay IC90; for Emax: read-out: Multi-Tox Assay Max Activity (%). The essentials:
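T-REx-HEK293 cells carrying tet-inducible APOL1 G1 induced with 50 ng/mL tet alongside compound (top 10 µM, 10-point 3-fold, duplicate) for 24 h at 37 °C. MultiTox-Fluor dead/live protease fluorescence ratio read after 30 min; normalized to no-tet (100% viability) and tet-treated (0%) controls, then curve-fitted.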

[1] abbreviates: HEK293, Multi-Tox Assay, APOL1 variant (G0/G1/G2) of the HEK293 cells not given.
[2] abbreviates: Multi-Tox Assay, APOL1 variant not given.
Where [3] appears, read: Multi-Tox Assay, APOL1 variant (G0/G1/G2) not stated in Table 46.
[4] abbreviates: Multi-Tox Assay, APOL1 variant not stated in Table 46.

For the molecule `C[C@H]1C[C@@]2(C[C@@H](c3cn(Cc4ccc(CO)cc4)nn3)N1)OCC(F)(F)c1cc(Cl)sc12` [Compound 225, (4-((4-((2S,4S,6S)-2'-chloro-4',4'-difluoro-2-methyl-4',5'-dihydrospiro[piperidine-4,7'-thieno[2,3-c]pyran]-6-yl)-1H-1,2,3-triazol-1-yl)methyl)phenyl)methanol], the IC90 – broadly, the concentration at which the effect reaches the 90% level – under setting [1] fell in the range of 50 to 500 nM. Further, the “Multi-Tox Assay Max Activity (%)” value under setting [2] was found to be 97.0%. In the case of `C[C@H]1C[C@@]2(C[C@@H](c3cccc(NS(C)(=O)=O)c3)N1)OCCc1cc(Cl)sc12` (racemic) [Compound 115], the IC90 under setting [1] was 50 to 500 nM. Besides, the “Multi-Tox Assay Max Activity (%)” value under setting [2] was 99.3%. With `Cc1cccc(OCC(O)Cn2cc([C@@H]3C[C@]4(C[C@H](C)N3)OCC(F)(F)c3cc(Cl)sc34)nn2)c1` (stereo partly shown) [Compound 303], the 90% effect concentration (IC90) under setting [1] was in the range of 50 to 500 nM. As to `CCc1c[nH]c([C@@H]2C[C@]3(C[C@H](C)N2)OCCc2cc(Cl)sc23)n1` (racemic) [Compound 153], under setting [1], the IC90 was above 500 nM. Also, the “Multi-Tox Assay Max Activity (%)” value under setting [2] is 96.0%.

On to `C[C@H]1C[C@@]2(C[C@@H](c3ccc(C(=O)NC4CC4)cc3)N1)OCCc1cc(Cl)sc12` (racemic) [Compound 71], for which, under setting [1], the IC90 is below 50 nM. Besides, the Emax under setting [2] worked out at 100%. Turning to `C[C@H]1C[C@@]2(C[C@@H](c3cn(C[C@@H](O)CO)nn3)N1)OCC(F)(F)c1cc(Cl)sc12` [Compound 363], the IC90 under setting [3] was in the range of 50 to 500 nM.

Regarding `Cc1nc([C@@H]2C[C@]3(C[C@H](C)N2)OCCc2cc(Cl)sc23)co1` (racemic) [Compound 104], the concentration for an effect of 90% (IC90) under setting [1] was in the range of 50 to 500 nM. Also, the “Multi-Tox Assay Max Activity (%)” value under setting [2] is on record as 99.3%. With `COc1ccc(Cn2cc([C@@H]3C[C@]4(C[C@H](C)N3)OCC(F)(F)c3cc(Cl)sc34)nn2)cc1F` [Compound 362], the IC90 under setting [3] was in the range of 50 to 500 nM. In addition, the “Multi-Tox Assay Max Activity (%)” value under setting [4] amounted to 98.0%. The pIC50 (in general, the IC50 on a negative log10 scale, so that one unit is a factor of ten) (Multi-Tox Assay, IP50 = IC50 for cell proliferation, APOL1 variant not stated in Table 46) is 6.30 to 7.30. In the case of `C[C@H]1C[C@@]2(C[C@@H](c3ccnc(N(C)C)n3)N1)OCCc1cc(Cl)sc12` (racemic) [Compound 127], the IC90 under setting [1] was 50 to 500 nM. In addition, the “Multi-Tox Assay Max Activity (%)” value under setting [2] is given as 99.3%. Consider `CC(C)N1CC(Cn2cc([C@@H]3C[C@]4(C[C@H](C)N3)OCC(F)(F)c3cc(Cl)sc34)nn2)CC1=O` (stereo partly shown) [Compound 327], for which the concentration for an effect of 90% (IC90) under setting [1] fell in the range of 50 to 500 nM. Under setting [2], the “Multi-Tox Assay Max Activity (%)” value was 98.0%. Turning to `C[C@H]1C[C@@]2(C[C@@H](c3cn(CC4CCS(=O)(=O)C4)nn3)N1)OC[C@@H](O)c1cc(Cl)sc12` (stereo partly shown) [Compound 265], the IC90 under setting [1] was in the range of 50 to 500 nM. As to `CC1COC2(C[C@@H](c3cn(C)nn3)N[C@@H](C)C2)c2cc(Cl)sc21` (single isomer, unassigned) [Compound 12], under setting [1], the IC90 is below 50 nM. Moreover, under setting [2], the “Multi-Tox Assay Max Activity (%)” value stood at 99.3%. In the case of `CC1CC2(CC(C(C)C)N1)OCCc1cc(Cl)sc12` (mixture of isomers) [Compound 214], the IC90 under setting [1] was in the range of 50 to 500 nM. Further, the Emax under setting [2] amounted to 99.3%.

`Cc1nc([C@@H]2C[C@]3(C[C@H](C)N2)OCCc2cc(Cl)sc23)[nH]c1C` (racemic) [Compound 150]: the IC90 under setting [1] is above 500 nM. In addition, under setting [2], the “Multi-Tox Assay Max Activity (%)” value is listed as 96.3%.

`C[C@H]1C[C@@]2(C[C@@H](c3ccccn3)N1)OCCc1cc(Cl)sc12` (racemic) [Compound 83]: the IC90 under setting [1] is below 50 nM. Besides, the Emax under setting [2] was 99%. For the molecule `C[C@H]1C[C@@]2(C[C@@H](c3cn(C[C@@H](O)CO)nn3)N1)OC[C@@H](O)c1cc(Cl)sc12` [Compound 246], the IC90 under setting [1] fell in the range of 50 to 500 nM. Also, under setting [2], the “Multi-Tox Assay Max Activity (%)” value was determined as 97.0%. For the molecule `CC1CC2(CC(C3CCC3)N1)OCCc1cc(Cl)sc12` (mixture of isomers) [Compound 218], the IC90 under setting [1] lay in the range of 50 to 500 nM. Moreover, the Emax under setting [2] amounted to 99.3%. In the same order, the values of `C[C@@H]1CC2(C[C@H](C)N1)OCCc1cc(Cl)sc12` (single isomer, unassigned) [Compound 204] are 50 to 500 nM and 99%. Turning to `COc1ccc(Cn2cc([C@@H]3C[C@]4(C[C@H](C)N3)OCC(F)(F)c3cc(Cl)sc34)nn2)cn1` [Compound 360], the IC90 under setting [1] lay within 50 to 500 nM. On to `C[C@H]1C[C@@]2(C[C@@H](c3ccc(C(F)(F)F)nc3)N1)OCCc1cc(Cl)sc12` (racemic) [Compound 123], for which, under setting [1], the IC90 fell in the range of 50 to 500 nM. The “Multi-Tox Assay Max Activity (%)” value under setting [2] turned out to be 100.0%. For `C[C@H]1C[C@@]2(C[C@@H](c3cn(Cc4n[nH]c5ccccc45)nn3)N1)OC[C@@H](O)c1cc(Cl)sc12` [Compound 232], under setting [1], the IC90 fell in the range of 50 to 500 nM. Further, the “Multi-Tox Assay Max Activity (%)” value under setting [2] was 100.0%. As for `C[C@H]1C[C@@]2(C[C@@H](c3ccc(O)nn3)N1)OCCc1cc(Cl)sc12` [Compound 86], the IC90 under setting [1] was below 50 nM. Moreover, the Emax under setting [2] was found to be 99.5%. In the same order, the values of `CC1CC2(CC(C)N1)OCCc1cc(Cl)sc12` (mixture of isomers) [Compound 194, 2-chloro-2',6'-dimethyl-spiro[4,5-dihydrothieno[2,3-c]pyran-7,4'-piperidine]] are 50 to 500 nM and 98.7%. For the molecule `C[C@H]1C[C@@]2(C[C@@H](c3cn(Cc4ccc(C#N)cc4)nn3)N1)OC[C@@H](O)c1cc(Cl)sc12` [Compound 253], the IC90 under setting [1] lay within 50 to 500 nM. Moreover, under setting [2], the “Multi-Tox Assay Max Activity (%)” value turned out to be 100.0%.

Take `Cn1cc([C@@H]2C[C@]3(C[C@H](C4CC4)N2)OCCc2cc(C(F)(F)F)sc23)nn1` [Compound 383, (2'R,6'S,7S)-2'-cyclopropyl-6'-(1-methyltriazol-4-yl)-2-(trifluoromethyl)spiro[4,5-dihydrothieno[2,3-c]pyran-7,4'-piperidine]]: under setting [3], the IC90 was below 50 nM. The Emax under setting [4] turned out to be 100%.

For `CC1CC2(CC(c3cnn(CCS(C)(=O)=O)c3)N1)OCCc1cc(Cl)sc12` (stereo not shown) [Compound 46], the IC90 under setting [1] was below 50 nM. As to `COC(=O)C1([C@@H]2C[C@]3(C[C@H](C)N2)OCCc2cc(Cl)sc23)CC1` [Compound 372, methyl 1-[(2'S,6'S,7S)-2-chloro-6'-methyl-spiro[4,5-dihydrothieno[2,3-c]pyran-7,4'-piperidine]-2'-yl]cyclopropanecarboxylate], the IC90 under setting [3] is above 500 nM. The “Multi-Tox Assay Max Activity (%)” value under setting [4] is 92.0%.

`C[C@H]1C[C@@]2(C[C@@H](c3cnccc3O)N1)OCCc1cc(Cl)sc12` (racemic) [Compound 160]: under setting [1], the IC90 is above 500 nM. Moreover, the “Multi-Tox Assay Max Activity (%)” value under setting [2] turned out to be 94.3%. Turning to `Cc1ccc([C@@H]2C[C@]3(C[C@H](C)N2)OCCc2cc(Cl)sc23)nc1` (racemic) [Compound 77], the concentration for an effect of 90% (IC90) under setting [1] is below 50 nM. Besides, the Emax under setting [2] came to 99%. Take `C[C@H]1C[C@@]2(C[C@@H](C3CC3)N1)OCC(O)c1cc(Cl)sc12` (stereo partly drawn) [Compound 220, (2'S,6'S,7S)-2-chloro-2'-cyclopropyl-6'-methyl-spiro[4,5-dihydrothieno[2,3-c]pyran-7,4'-piperidine]-4-ol]: the 90% effect concentration (IC90) under setting [1] is below 50 nM. The Emax under setting [2] was 99.3%. Turning to `C[C@H]1C[C@@]2(C[C@@H](c3cn(CCCO)nn3)N1)OCC(F)(F)c1cc(Cl)sc12` [Compound 359], under setting [1], the concentration for an effect of 90% (IC90) is below 50 nM. The “Multi-Tox Assay Max Activity (%)” value under setting [2] worked out at 98.0%. On the same counts, the results for `C[C@H]1C[C@@]2(C[C@@H](c3cn(Cc4ncc(F)cc4F)nn3)N1)OC[C@@H](O)c1cc(Cl)sc12` [Compound 298] are above 500 nM and 95.0%. On the same counts, the results for `C[C@H]1C[C@@]2(C[C@@H](c3cnc4c(cnn4C)c3)N1)OCCc1cc(Cl)sc12` (racemic) [Compound 26] are below 50 nM and 100.0%. Consider `C[C@H]1C[C@@]2(C[C@@H](c3cc(C4CC4)n[nH]3)N1)OCCc1cc(Cl)sc12` (racemic) [Compound 120], for which the IC90 under setting [1] lay in the range of 50 to 500 nM.

`CCC1CC2(CC(C)N1)OCCc1cc(Cl)sc12` (mixture of isomers) [Compound 215]: the IC90 under setting [1] fell in the range of 50 to 500 nM. Besides, the Emax under setting [2] amounted to 99.3%.

Regarding `C[C@H]1C[C@@]2(C[C@@H](c3ccc(O)cn3)N1)OCCc1cc(Cl)sc12` (racemic) [Compound 59], the IC90 under setting [1] was below 50 nM. Under setting [2], the “Multi-Tox Assay Max Activity (%)” value turned out to be 99.3%. In the case of `C[C@H]1C[C@@]2(C[C@@H](c3cn4c(n3)COCC4)N1)OCCc1cc(Cl)sc12` (racemic) [Compound 74], the IC90 under setting [1] was below 50 nM. Under setting [2], the Emax stood at 99.2%.

With `CC(C)C(=O)NCCn1cc([C@@H]2C[C@]3(C[C@H](C)N2)OC[C@@H](O)c2cc(Cl)sc23)nn1` [Compound 230], the IC90 under setting [1] is above 500 nM. Besides, the “Multi-Tox Assay Max Activity (%)” value under setting [2] came to 98.0%.

With `Cc1cc(C2CC3(CC(C)N2)OCCc2cc(Cl)sc23)ncn1` (stereo not shown) [Compound 43], the IC90 under setting [1] was below 50 nM. For the same molecule, the “Multi-Tox Assay Max Activity (%)” value under setting [2] was found to be 100.0%.

The record behind these values is patent EP4810040A2, “INHIBITORS OF APOL1 AND METHODS OF USING SAME” (priority 2020, dated 2022).
